The values that follow are results of earlier work, collected in publication PMC3461336 (Biomacromolecules, 2012).

For the series the following is noted: without dpA3.

Regarding `CC(=O)O[C@H]1C(=O)[C@@]2(C)[C@H]([C@H](OC(=O)c3ccccc3)[C@]3(O)C[C@H](OC(=O)[C@H](O)[C@@H](NC(=O)c4ccccc4)c4ccccc4)C(C)=C1C3(C)C)[C@]1(OC(C)=O)CO[C@@H]1C[C@@H]2O` [PAX, Paclitaxel], the “PAX solubility in aqueous solvents” value was < 0.1 µg/mL.
